According to patent publication US20250170248A1, “SMARCA DEGRADERS AND USES THEREOF” (Kymera Therapeutics, Inc., priority 2021, published 2025):

Key:
Format in all cases: cell-based
[1] = target: T1, SMARCA4 (Homo sapiens, UniProt P51532); assay: SMARCA4 Western blot degradation in MV4-11 cells; conditions: for Dmax: MV4-11, MV4-11 cells, read-out: SMARCA4 MSD MV411 degradation 24 h: average Dmax %; for Dmax / DC50: 24 h; for DC50: read-out: SMARCA4 MSD MV411 degradation 24 h: Mean external-Abs DC50
T1 construct: SMARCA2/SMARCA4 protein degradation selectivity in MV4-11 cells; endogenous in cells; host or cells: MV4-11
T1 sequence (P51532 whole entry): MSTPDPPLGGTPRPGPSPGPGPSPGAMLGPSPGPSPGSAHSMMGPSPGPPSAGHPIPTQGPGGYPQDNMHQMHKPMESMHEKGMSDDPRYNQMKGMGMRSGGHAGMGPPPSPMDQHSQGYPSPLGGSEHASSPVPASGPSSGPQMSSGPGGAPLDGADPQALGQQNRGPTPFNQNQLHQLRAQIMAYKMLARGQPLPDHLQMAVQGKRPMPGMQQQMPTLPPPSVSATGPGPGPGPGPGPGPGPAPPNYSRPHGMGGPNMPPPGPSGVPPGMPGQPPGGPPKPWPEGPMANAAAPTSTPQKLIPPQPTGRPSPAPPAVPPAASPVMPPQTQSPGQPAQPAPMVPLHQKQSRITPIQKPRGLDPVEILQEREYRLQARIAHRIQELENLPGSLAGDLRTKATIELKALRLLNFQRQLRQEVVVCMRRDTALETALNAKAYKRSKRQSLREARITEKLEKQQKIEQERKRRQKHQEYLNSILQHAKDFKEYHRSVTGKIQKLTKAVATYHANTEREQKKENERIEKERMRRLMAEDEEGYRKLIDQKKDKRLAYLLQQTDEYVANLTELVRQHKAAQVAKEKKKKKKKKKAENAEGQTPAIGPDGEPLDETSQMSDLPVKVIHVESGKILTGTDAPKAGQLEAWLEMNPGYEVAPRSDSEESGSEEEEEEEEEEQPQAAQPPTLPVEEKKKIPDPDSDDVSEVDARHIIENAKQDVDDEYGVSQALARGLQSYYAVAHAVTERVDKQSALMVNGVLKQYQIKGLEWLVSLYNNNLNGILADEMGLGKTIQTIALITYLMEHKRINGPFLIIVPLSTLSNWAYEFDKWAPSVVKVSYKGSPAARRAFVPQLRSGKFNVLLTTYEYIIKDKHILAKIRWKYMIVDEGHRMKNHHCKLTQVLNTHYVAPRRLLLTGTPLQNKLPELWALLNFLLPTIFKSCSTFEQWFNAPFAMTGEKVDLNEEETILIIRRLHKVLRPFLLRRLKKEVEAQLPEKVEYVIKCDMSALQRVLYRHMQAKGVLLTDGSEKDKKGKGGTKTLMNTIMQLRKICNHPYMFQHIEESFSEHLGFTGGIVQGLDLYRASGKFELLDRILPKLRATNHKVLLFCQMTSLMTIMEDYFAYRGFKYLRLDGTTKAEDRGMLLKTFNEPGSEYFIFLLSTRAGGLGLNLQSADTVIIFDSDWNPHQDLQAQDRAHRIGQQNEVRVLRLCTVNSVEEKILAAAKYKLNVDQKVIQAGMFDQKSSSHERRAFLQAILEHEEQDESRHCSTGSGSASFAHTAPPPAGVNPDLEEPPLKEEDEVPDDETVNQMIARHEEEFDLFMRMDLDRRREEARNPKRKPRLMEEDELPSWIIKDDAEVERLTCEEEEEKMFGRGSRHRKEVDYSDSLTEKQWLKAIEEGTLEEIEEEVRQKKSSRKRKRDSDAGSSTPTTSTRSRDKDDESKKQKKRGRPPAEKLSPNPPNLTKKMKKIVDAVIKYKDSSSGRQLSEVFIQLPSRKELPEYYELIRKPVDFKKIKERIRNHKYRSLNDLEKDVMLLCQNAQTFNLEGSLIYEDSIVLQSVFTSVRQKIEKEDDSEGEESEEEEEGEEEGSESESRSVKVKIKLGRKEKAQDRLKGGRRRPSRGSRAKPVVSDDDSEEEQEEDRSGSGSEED
How it was run: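 MV4-11 cells (4×10^6/well) treated with compound for 24 h, lysed in RIPA with protease/phosphatase inhibitors, and SMARCA2, SMARCA4 and beta-actin detected by Western blot with LI-COR readout. Values reported as letter-coded DC50, 24 h Dmax % and SMARCA2/4 selectivity fold.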

[2] = target: T2, SMARCA2 (Homo sapiens, UniProt P51531); assay: SMARCA2 Western blot degradation in MV4-11 cells; set-up: SMARCA2/SMARCA4 protein degradation selectivity in MV4-11 cells; endogenous in cells; host or cells: MV4-11; conditions: for Dmax: MV4-11, MV4-11 cells, read-out: SMARCA2 MSD MV411 degradation 24 h: average Dmax %; for DC50: read-out: SMARCA2 MSD MV411 degradation 24 h: Mean external-Abs DC50; for Selectivity in MV411: SMARCA2/4 selectivity
T2 sequence (P51531 whole entry): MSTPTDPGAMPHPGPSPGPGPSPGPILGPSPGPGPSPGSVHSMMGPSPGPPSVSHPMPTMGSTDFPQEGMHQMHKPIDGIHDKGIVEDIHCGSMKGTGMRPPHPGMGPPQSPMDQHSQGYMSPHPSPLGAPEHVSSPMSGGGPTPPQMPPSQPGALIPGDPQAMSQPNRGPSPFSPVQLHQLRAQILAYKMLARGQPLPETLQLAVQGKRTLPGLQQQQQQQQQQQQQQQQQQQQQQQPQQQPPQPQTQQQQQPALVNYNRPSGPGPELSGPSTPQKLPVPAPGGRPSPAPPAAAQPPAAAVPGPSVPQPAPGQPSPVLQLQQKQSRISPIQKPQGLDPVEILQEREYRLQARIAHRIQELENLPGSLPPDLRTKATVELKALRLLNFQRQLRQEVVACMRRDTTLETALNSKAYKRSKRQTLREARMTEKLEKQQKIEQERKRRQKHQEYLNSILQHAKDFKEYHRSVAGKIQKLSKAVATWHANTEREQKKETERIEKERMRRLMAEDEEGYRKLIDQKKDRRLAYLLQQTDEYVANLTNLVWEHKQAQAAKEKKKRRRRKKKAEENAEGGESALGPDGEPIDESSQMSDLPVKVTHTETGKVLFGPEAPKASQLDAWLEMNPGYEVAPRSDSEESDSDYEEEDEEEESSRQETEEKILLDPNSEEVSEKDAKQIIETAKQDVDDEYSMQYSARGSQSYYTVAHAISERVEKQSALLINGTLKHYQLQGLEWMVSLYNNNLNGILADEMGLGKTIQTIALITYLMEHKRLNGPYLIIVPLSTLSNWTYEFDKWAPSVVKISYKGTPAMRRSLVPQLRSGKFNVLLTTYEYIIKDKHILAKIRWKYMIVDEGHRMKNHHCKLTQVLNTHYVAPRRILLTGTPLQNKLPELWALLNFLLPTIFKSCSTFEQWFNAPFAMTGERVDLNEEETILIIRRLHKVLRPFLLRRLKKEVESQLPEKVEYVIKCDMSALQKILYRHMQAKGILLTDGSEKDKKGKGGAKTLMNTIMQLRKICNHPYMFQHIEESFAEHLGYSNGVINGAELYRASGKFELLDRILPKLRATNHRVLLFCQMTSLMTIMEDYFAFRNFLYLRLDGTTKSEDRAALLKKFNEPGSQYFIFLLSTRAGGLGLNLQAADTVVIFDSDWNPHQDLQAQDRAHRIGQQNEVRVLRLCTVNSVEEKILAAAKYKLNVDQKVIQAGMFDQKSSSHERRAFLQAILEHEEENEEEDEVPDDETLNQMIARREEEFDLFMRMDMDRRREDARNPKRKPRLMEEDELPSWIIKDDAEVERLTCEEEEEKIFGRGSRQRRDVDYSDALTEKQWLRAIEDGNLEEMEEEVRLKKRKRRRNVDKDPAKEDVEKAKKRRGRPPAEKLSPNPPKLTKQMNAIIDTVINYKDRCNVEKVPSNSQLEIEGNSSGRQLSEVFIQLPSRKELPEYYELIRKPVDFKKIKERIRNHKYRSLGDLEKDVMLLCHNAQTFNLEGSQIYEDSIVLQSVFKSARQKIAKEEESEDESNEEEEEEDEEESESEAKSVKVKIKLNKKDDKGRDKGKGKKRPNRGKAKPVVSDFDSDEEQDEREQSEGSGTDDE

[3] = target: T2, SMARCA2; assay: MSD SMARCA2 degradation in A549 cell line; conditions: for Dmax: A549, A549 cells; for Dmax / DC50: 24 h; for DC50: read-out: SMARCA2 MSD A549 degradation 24 h: Average external-Abs DC50
How it was run: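 A549 cells treated 24 h with compound, 3-fold series from 1000 nM. Lysates captured on MSD plates and SMARCA2 quantified with anti-SMARCA2 and SULFO-TAG secondary antibodies (electrochemiluminescence). DC50 and Dmax (% degradation at 24 h) reported as letter bins.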

Compound	Dmax [1] [%]	DC50 ([1]; MV4-11 cells) [nM]	Dmax ([2]; 24 h) [%]	DC50 ([2]; MV4-11 cells, 24 h) [nM]	Selectivity in MV411 ([2]; MV4-11 cells)	Dmax [3] [%]	DC50 ([3]; A549 cells) [nM]	SMARCA4 MSD MV411 degradation 24 h: average Dmax % ([1]; MV4-11 cells)	SMARCA2 MSD MV411 degradation 24 h: average Dmax % ([2]; MV4-11 cells, 24 h)	SMARCA2 MSD A549 degradation 24 h: Average Dmax % ([3]; A549 cells)
C#CCOc1cc(C(C(=O)N2C[C@H](O)C[C@H]2C(=O)NCc2ccc(-c3scnc3C)cc2O[C@H]2CC[C@@H](N3CCC(c4cnc(N5CCc6[nH]c7nnc(-c8ccccc8O)cc7c6[C@H]5C)nc4)CC3)CC2)C(C)C)on1 (single isomer, unassigned) [I-37]	> 90	< 1	> 90	< 1	D (D (<10 fold))	> 90	< 10			
Cn1nccc1-c1ccc(CNC(=O)[C@@H]2C[C@@H](O)CN2C(=O)[C@@H](NC(=O)[C@H]2CC[C@H](c3ccc(-c4cnc(N5CCN6c7cc(-c8ccccc8O)nnc7NC[C@H]6C5)nc4)cc3)CC2)C(C)(C)C)cc1 (single isomer, unassigned) [I-87]	> 90	10 to 100	70 to 90	10 to 100	C (C (10-100 fold))	> 90	10 to 50			
C#Cc1ccc(CNC(=O)[C@@H]2C[C@@H](O)CN2C(=O)[C@@H](NC(=O)N2CC3(CC(N4CCC(N5CCC(N6CCc7[nH]c8nnc(-c9ccccc9O)cc8c7[C@H]6C)CC5)CC4)C3)C2)C(C)(C)C)c(OC)c1 [I-183]	70 to 90	> 100	70 to 90	10 to 100	C (C (10-100 fold))	> 90	> 100			
Cc1ncsc1-c1ccc(CNC(=O)[C@@H]2C[C@@H](O)CN2C(=O)C(c2cc(OCCCCN3CCC(c4cnc(N5CCN6c7cc(-c8ccccc8O)nnc7NC[C@@H]6C5)nc4)CC3)no2)C(C)C)cc1 (stereo partly drawn) [I-51, (2S,4R)-4-hydroxy-1-(2-(3-(4-(4-(2-((R)-2-(2-hydroxyphenyl)-6a,7,9,10-tetrahydro-5H-pyrazino[1′,2′:4,5]pyrazino[2,3-c]pyridazin-8(6H)-yl)pyrimidin-5-yl)piperidin-1-yl)butoxy)isoxazol-5-yl)-3-methylbutanoyl)-N-(4-(4-methylthiazol-5-yl)benzyl)pyrrolidine-2-carboxamide]	> 90	1 to 10	> 90	< 1	D (D (<10 fold))	70 to 90	10 to 50			
C#Cc1ccc(CNC(=O)[C@@H]2C[C@@H](O)CN2C(=O)[C@@H](NC(=O)N2CC3(CC(N4CCN([C@H]5CC[C@@H](N6CCc7[nH]c8nnc(-c9ccccc9O)cc8c7[C@H]6C)CC5)CC4)C3)C2)C(C)(C)C)cc1 [I-187]	70 to 90	> 100	70 to 90	1 to 10	C (C (10-100 fold))	> 90	50 to 100			
C#Cc1ccc(CNC(=O)[C@@H]2C[C@@H](O)CN2C(=O)[C@@H](NC(=O)C2CCC3(CC2)CC(N2CCC(N4CCC(C(=O)N5CCN6c7cc(-c8ccccc8O)nnc7NC[C@H]6C5)CC4)CC2)C3)C(C)(C)C)cc1 (some centres unmarked) [I-89]	< 50	> 100	70 to 90	1 to 10	A (A (>500 fold))	> 90	> 100			
C#Cc1ccc([C@@H](CO)NC(=O)[C@@H]2C[C@@H](O)CN2C(=O)[C@@H](NC(=O)N2CC3(CC(N4CCC(c5cnc(N6CCc7[nH]c8nnc(-c9ccccc9O)cc8c7[C@H]6C)nc5)CC4)C3)C2)C(C)(C)C)nc1 [I-305]	< 50	> 100	50 to 70	> 100	D (D (<10 fold))	50 to 70	> 100			
C#Cc1ccc(CNC(=O)[C@@H]2C[C@@H](O)CN2C(=O)[C@H](NC(=O)N2CC3(CC(N4CCC(c5cnc(N6CCc7[nH]c8nnc(-c9ccccc9O)cc8c7[C@H]6C)nc5)CC4)C3)C2)C(C)(C)CCN2CCN[C@@H](C(=O)O)C2)cc1 [I-341]	< 50	> 100	< 50	> 100	C (C (10-100 fold))	< 50	> 100			
C#Cc1ccc(CNC(=O)[C@@H]2C[C@@H](O)CN2C(=O)[C@@H](NC(=O)N2CC3(CC(N4CCC(c5cnc(N6CCc7[nH]c8nnc(-c9ccccc9O)cc8c7[C@H]6C)nc5)CC4)C3)C2)C(C)(C)CCN2CCOCC2)cc1 (single isomer, unassigned) [I-338]	< 50	> 100	< 50	> 100	C (C (10-100 fold))	< 50	> 100			
C#Cc1ccc(CNC(=O)[C@@H]2C[C@@H](O)CN2C(=O)[C@@H](NC(=O)[C@H]2CCC3(CC2)C[C@H](N2CCC(N4CC5(CC(N6CCN7c8cc(-c9ccccc9O)nnc8NC[C@H]7C6)C5)C4)CC2)C3)C(C)(C)C)cc1 (single isomer, unassigned) [I-223]	50 to 70	> 100	70 to 90	1 to 10	C (C (10-100 fold))	> 90	50 to 100			
C#Cc1ccc(CNC(=O)[C@@H]2C[C@@H](O)CN2C(=O)[C@@H](NC(=O)N2CC3(CC(N4CCC(c5cnc(N6CCc7[nH]c8nnc(-c9ccccc9O)cc8c7[C@H]6CO)nc5)CC4)C3)C2)C(C)(C)C)cc1 [I-146]	70 to 90	10 to 100	> 90	1 to 10	C (C (10-100 fold))	> 90	< 10			
C#Cc1ccc([C@H](C)NC(=O)[C@@H]2C[C@@H](O)CN2C(=O)[C@@H](c2cc(OCCN3CCN4c5cc(-c6ccccc6O)nnc5NC[C@H]4C3)no2)C(C)C)cc1 (single isomer, unassigned) [I-273]	50 to 70	> 100	> 90	1 to 10	C (C (10-100 fold))	> 90	> 100			
Cc1ncsc1-c1ccc(CNC(=O)[C@@H]2C[C@@H](O)CN2C(=O)[C@@H](NC(=O)[C@H]2CCC3(CC2)C[C@H](N2CCC(c4ccc(N5CCN6c7cc(-c8ccccc8O)nnc7NC[C@H]6C5)nc4)CC2)C3)C(C)(C)C)cc1 (some centres unmarked) [I-94]		10 to 100		1 to 10	C (C (10-100 fold))		10 to 50	C (C (50-70% degradation))	B (B (>70-90% degradation))	A (A (>90% degradation))
Cc1ncsc1-c1ccc(CNC(=O)[C@@H]2C[C@@H](O)CN2C(=O)C(c2cc(OCCCN3CCC(c4cnc(N5CCN6c7cc(-c8ccccc8O)nnc7NCC6C5)nc4)CC3)no2)C(C)C)cc1 (stereo in doubt) [I-52, (2S,4R)-4-hydroxy-1-(2-(3-(3-(4-(2-((S)-2-(2-hydroxyphenyl)-6a,7,9,10-tetrahydro-5H-pyrazino[1′,2′:4,5]pyrazino[2,3-c]pyridazin-8(6H)-yl)pyrimidin-5-yl)piperidin-1-yl)propoxy)isoxazol-5-yl)-3-methylbutanoyl)-N-(4-(4-methylthiazol-5-yl)benzyl)pyrrolidine-2-carboxamide]	> 90	1 to 10	> 90	< 1	D (D (<10 fold))	> 90	10 to 50			
